“Also recorded” adds a separate entry of the source.
Columns and labels:
[1] = system: podocytes from isolated mouse glomeruli; assay: Glomerular culture and podocyte spreading on ECM-micropatterned hydrogels; type: cell-based; conditions: glomeruli cultured 2 days on micropatterned PAAm hydrogels
Description: To test which micropatterned ECM proteins best support podocytes, mouse glomeruli were isolated and cultured on hydrogels coated with Lam-521, collagen IV, or fibronectin. […] Furthermore, the PAAm hydrogel was coated with Lam-521 and micropatterned protein-free patches onto the substrate using a PDMS stamp that removed Lam-521, leaving an inverse of the previous Lam-521 micropatterns interdigitated with microscale patches of exposed PAAm.
Next, the PDMS stamp was cleaned by sonication (Branson) for 20 min and washed in 50% ethanol solution before drying under nitrogen flow followed by plasma cleaning for 2 min (Harrick Plasma). Last, the PDMS stamp micropattern areas were soaked in different ECM solutions [laminin 521 (50 μg/ml; Biolamina, LN521-05), fibronectin (Corning, 356008), or collagen IV (Corning, 354233) in phosphate-buffered saline (PBS)] and left to set for 1 hour at room temperature.
After air-drying the ECM proteins atop the PDMS stamp, the excess solution was removed, and the stamp was dried further using nitrogen flow. The freshly prepared hydroxyl-PAAm hydrogel was also dried out by treatment with nitrogen flow. […]

primary podocytes = assay: Myosin II inhibition with blebbistatin: sarcomere-like structures (SLSs) in primary podocytes, immunostained for synaptopodin and myosin IIA; type: cell-based, mouse
Method: After spreading, cultured podocytes on the hydrogels or glass were fixed in 4% paraformaldehyde (Electron Microscopy Sciences, 15712) for 10 min at room temperature followed by washing with 1×PBS, three times for 6 min each, and then permeabilized using 0.05% Triton X-100 for 10 min at room temperature. Next, samples were blocked using 2% bovine serum albumin (Sigma-Aldrich, A7906) for 30 min at room temperature before applying the primary antibodies overnight at 4° C. Next, samples were washed with 1×PBS, three times for 6 min each before incubating them with the secondary antibodies in PBS for 1 hour at room temperature. Last, the samples were washed in 1×PBS, three times for 6 min, and prepared for mounting using Invitrogen Slow Fade mounting medium (Invitrogen, S36917). The cover glass holding the sample (hydrogel and cells) was bonded to a second cover glass using nail polish. The primary antibodies used were myosin IIA (BioLegend, 909801, rabbit anti-mouse), myosin IIA (Abnova, clone 3C7, mouse anti-human, NH2-terminus), synaptopodin (Synaptic Systems, 163004, guinea pig anti-mouse), laminin α5 [clone 4C7, mouse anti-human], fibronectin (Sigma-Aldrich, F3648, rabbit anti-human), collagen IV (SouthernBiotech, 1340-01, goat anti-human), nephrin (R&D Systems, AF3159, goat anti-mouse), and α-SMA (Invitrogen, 14-9760-82). Alexa Fluor 555 phalloidin (Thermo Fisher Scientific, A34055) was used for actin staining. For mouse myosin antibodies (clone 3C7), samples were antigen retrieved in TE (Tris-EDTA) buffer (pH 9.0) at 65° C. for 4 hours before the permeabilization step.
Blebbistatin (EMD Millipore, 203389-5) was used to inhibit the function of myosin II in the podocytes. […] After 2 hours of treatment, the samples were washed with PBS and immediately fixed and stained as mentioned above.
Sarcomeric structures were measured using ImageJ (v1.53e with Bio-Formats plugin). Briefly, fluorescence intensity maps were acquired by plotting the intensity along a line drawn perpendicular to the sarcomere structure. For the histogram, the spacing of each sarcomere is calculated by recording the peak location in the intensity map, and n for each group represents the total sarcomere number calculated in that group. For averaged sarcomeric spacing, the mean values were calculated for each intensity map (i.e., each stress fiber that is no less than 6 μm long), while n for each group represents the number of stress fibers analyzed in that group.
(§1) For counting and scoring cell phenotypes, imaged podocytes were divided into several categories, including (i) cells with SLSs centrally and in the periphery, (ii) cells with SLSs only in the periphery, (iii) cells with loose striated patterns of synaptopodin and myosin IIA instead of a mat of SLSs (i.e., widely spaced SLSs), and, lastly, (iv) cells without SLSs. For measuring cell length, the longest axis of the cell was determined (mostly along the micropattern direction), and the length was determined through ImageJ (v1.53e with Bio-Formats plugin).

primary mouse podocytes = assay: Cell relaxation and strain mapping with microbead-embedded hydrogels after CytoD; type: cell-based
Method: Fluorescent microbeads with a diameter of 0.2 μm (Invitrogen, F8801) were added to the hydrogel's pre-cross-linking solution with a 1:60 dilution ratio before the cross-linking step. After solidification, hydrogels were used for the strain mapping as reported earlier. Briefly, primary mouse podocytes were isolated as described above, seeded on the hydrogels, and allowed to spread for 24 hours. Next, the cells were transferred to a live-imaging chamber before adding CytoD to the culture medium (CytoD, Sigma-Aldrich, 22144-77-0; final concentration, 20 μM). In the final step, the culture medium was changed to 10% SDS to remove the attached cells completely. Cell relaxation and microbead movements were recorded immediately after adding CytoD or 10% SDS, and the strain field was calculated using a strain mapping algorithm that was developed in our previous study.
as §1

## human laminin α5β2γ1 trimer [Lam-521]
[1]
  podocyte population of micropatterns: podocytes populated micropatterns coated with Lam-521

## Cc1ccc2c(c1)C(=O)C1(O)CCN(c3ccccc3)C1=N2 (centres unmarked) [blebbistatin, Blebbistatin]
Primary podocytes; 10 nM blebbistatin, 0.2- or 0.9-kPa hydrogels (FIG. 4F)
  SLS formation: SLSs failed to form; also recorded: caused the loss of SLSs with a lower concentration of blebbistatin
Primary podocytes; 10 nM blebbistatin, 6.0-kPa hydrogels or glass substrates (FIGS. 4F and G), listed as Blebb
  SLS formation and sarcomeric spacing: myosin inhibition led to wider sarcomeric spacing
Primary podocytes; 2 μM blebbistatin (milder myosin inhibition)
  effect on SLSs: insufficient to disrupt the SLSs at the cell periphery but sufficient to disrupt those in the centers of the cells
Primary podocytes; 10 μM blebbistatin, 2 hours, 6.0-kPa PAAm hydrogels and cover glass with Lam-521
  effect on SLSs: caused aggregation of synaptopodin in the center of the cells and increased sarcomeric spacing in SLSs that persisted at the cell periphery
Primary podocytes; 100 μM blebbistatin, 2 hours, 6.0-kPa PAAm hydrogels and cover glass with Lam-521
  effect on SLSs: nearly eliminated SLSs
Primary podocytes; podocytes on glass or patterned hydrogels (FIGS. 4D and E)
  disruption or loss of SLSs, concentration not given: disrupted the sarcomeric structures of SLSs in a way that depended on the dose, substrate stiffness, and position; also recorded: caused a marked loss of SLSs

## C=C1[C@@H](C)[C@H]2[C@H](Cc3ccccc3)NC(=O)[C@]23[C@H](OC(C)=O)/C=C/[C@@](C)(O)C(=O)[C@@H](C)C/C=C/[C@H]3[C@@H]1O [CytoD, cytochalasin D]
Primary mouse podocytes; 0.9 kPa substrates, 15 min CytoD
  cell length before and after CytoD: most cells elongated along their axes; also recorded: increases in cell length associated with 15 min of CytoD treatment were statistically significant
Primary mouse podocytes; 6 kPa substrates, CytoD
  cell length before and after CytoD: Less, but still significant cell relaxation
Primary mouse podocytes; 6 kPa substrates, CytoD compared with subsequent SDS treatment
  substrate strains associated with treatment: much larger than those associated with subsequent SDS treatment
Primary mouse podocytes; reseeded primary podocytes, CytoD 20 μM, video recording
  cell relaxation after actin disruption: significant cell relaxation
